Results: ChEMBL document CHEMBL5325451, “Structurally Diverse Triterpene-26-oic Acids as Potential Dual ACL and ACC1 Inhibitors from the Vulnerable Conifer Keteleeria fortunei” (J Nat Prod, 2023)

Key:
ATP-citrate synthase [1] = target: T1, ATP-citrate synthase (Homo sapiens, UniProt P53396); assay: Inhibition of ACL (unknown origin)
T1 sequence (P53396 whole entry): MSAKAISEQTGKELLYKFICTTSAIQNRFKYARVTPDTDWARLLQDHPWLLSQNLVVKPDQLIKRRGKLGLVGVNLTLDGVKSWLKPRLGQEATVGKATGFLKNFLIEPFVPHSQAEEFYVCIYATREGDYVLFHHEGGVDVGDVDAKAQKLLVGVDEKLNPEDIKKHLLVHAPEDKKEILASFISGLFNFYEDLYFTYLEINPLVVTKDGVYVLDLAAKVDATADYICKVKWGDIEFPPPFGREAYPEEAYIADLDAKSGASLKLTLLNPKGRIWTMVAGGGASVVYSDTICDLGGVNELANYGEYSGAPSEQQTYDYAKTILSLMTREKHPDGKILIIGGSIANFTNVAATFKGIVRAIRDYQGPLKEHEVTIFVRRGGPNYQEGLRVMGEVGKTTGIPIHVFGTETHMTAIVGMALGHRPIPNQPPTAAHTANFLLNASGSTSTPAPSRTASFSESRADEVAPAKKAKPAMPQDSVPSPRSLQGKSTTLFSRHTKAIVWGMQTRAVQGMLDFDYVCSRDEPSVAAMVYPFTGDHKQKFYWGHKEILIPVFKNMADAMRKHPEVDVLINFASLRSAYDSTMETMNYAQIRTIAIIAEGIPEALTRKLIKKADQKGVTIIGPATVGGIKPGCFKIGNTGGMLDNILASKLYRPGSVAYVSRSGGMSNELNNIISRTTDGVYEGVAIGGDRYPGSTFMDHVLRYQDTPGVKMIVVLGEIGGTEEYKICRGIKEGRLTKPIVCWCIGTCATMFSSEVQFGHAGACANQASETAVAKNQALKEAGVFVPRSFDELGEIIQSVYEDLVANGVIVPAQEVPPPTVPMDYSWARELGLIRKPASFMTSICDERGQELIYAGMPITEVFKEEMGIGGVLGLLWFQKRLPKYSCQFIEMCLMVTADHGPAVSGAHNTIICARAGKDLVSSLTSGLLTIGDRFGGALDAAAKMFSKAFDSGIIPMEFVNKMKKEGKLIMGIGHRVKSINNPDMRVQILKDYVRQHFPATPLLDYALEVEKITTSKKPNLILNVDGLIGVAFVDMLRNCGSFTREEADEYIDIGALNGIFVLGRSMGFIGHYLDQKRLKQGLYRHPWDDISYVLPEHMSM

Acetyl-CoA carboxylase 1 = Acetyl-CoA carboxylase 1 (Homo sapiens, UniProt Q13085); assay: Inhibition of ACC1 (unknown origin) preincubated for 30 mins followed by ATP addition measured for 60 mins by ADP-Glo luminescence assay
ATP-citrate synthase [2] = target: T1, ATP-citrate synthase; assay: Inhibition of ACL (unknown origin) incubated for 30 mins in presence of ATP by ADP-Glo kinase assay

| IC50 (ATP-citrate synthase [1]) [µM] | IC50 (Acetyl-CoA carboxylase 1) [µM] | IC50 (ATP-citrate synthase [2]) [µM] | Compound |
| --- | --- | --- | --- |
| 0.5 | – | – | COc1ccc(-c2ccccc2)cc1NS(=O)(=O)c1cc(Cl)cc(Cl)c1O |
| – | 10.2 | 5.7 | CC(=O)O[C@@H]1CC[C@]2(C)[C@@H]3CC[C@]4(C)C(=CC[C@@]4(C)[C@H](C)Cc4cc(C(=O)O)co4)C3=CC[C@H]2C1(C)C |
| – | 7.5 | 6.6 | C[C@H](Cc1cc(C(=O)O)co1)[C@]1(C)CC[C@]2(C)C1=CC[C@@]13C[C@@]14CC[C@@H](O)C(C)(C)[C@@H]4CC[C@H]32 |
| – | 8.9 | 8.8 | C[C@H](Cc1cc(C(=O)O)co1)[C@H]1CC[C@@]2(C)C3=CC[C@H]4C(C)(C)[C@H](O)CC[C@]4(C)[C@@H]3CC[C@]12C |
| – | 8.4 | 11.4 | C[C@H](CC/C=C(\CO)C(=O)O)[C@H]1CC[C@@]2(C)[C@@H]3CC[C@H]4C(C)(C)[C@H](O)CC[C@@]45C[C@@]35CC[C@]12C |

| Compound | IC50 (ATP-citrate synthase [1]) [µM] | IC50 (Acetyl-CoA carboxylase 1) [µM] | IC50 (ATP-citrate synthase [2]) [µM] |
| --- | --- | --- | --- |
| C/C(=C\CC[C@@H](C)[C@H]1CC[C@@]2(C)[C@@H]3CC[C@H]4C(C)(C)[C@H](O)CC[C@@]45C[C@@]35CC[C@]12C)C(=O)O [ISOMANGIFEROLIC ACID] | – | 10.5 | 7.6 |
